# Values joined by “and” are separate entries in the source; they are usually repeats but may differ in a detail not shown here. Identical values can stand only once. Like-named read-outs stand apart in the source and are kept apart here.
# Tests used:
# [1] = Toxicokinetics in dogs after intra-articular injection: synovial fluid concentrations; assay type: in vivo, Beagle dogs; parameters: Synovial concentration of BETi1: unit not given here; details: for AUC(0-t) / Cmax / Tmax / concentration at 4 weeks: Beagle, dog, synovial fluid; for AUC(0-t): read-out: Synovia AUC0-672 h; for concentration at 4 weeks: other: intra-articular injection, read-out: synovial level at four weeks post-treatment
# Description: 16 Beagle dogs (8 males, 8 females) were assigned to four treatment groups to determine toxicity of BETi1 formulations following intra-articular injection.
# The experimental groups are presented below: • Group 1: Control; 0 mg of BETi1/animal dose • Group 2: Low Dose; 7.5 mg of BETi1/animal dose • Group 3: Mid Dose; 75 mg of BETi1/animal dose • Group 4: High Dose; 150 mg of BETi1/animal dose
# The control and BETi1 dose formulations were comprised as follows: Control: Vehicle (0.5% sodium carboxymethylcellulose; 0.1% polysorbate 80 in saline) • Low Dose: 0.75% w/w BETi1 suspended in Vehicle • Mid Dose: 7.5% w/w BETi1 suspended in Vehicle • High Dose: 15% w/w BETi1 suspended in Vehicle
# Study dogs were administered control treatment or treatment with a BETi1 formulation via intra-articular injection only to their right knee joints. Dosage volume was 1 mL/knee.
# Approximately 80 μL of synovial fluid was collected from animals from the right knee joint and placed into appropriately labeled tubes onto wet ice. Synovia was then transferred into labeled clear polypropylene tubes and frozen in the upright position over dry ice and stored in a freezer set to maintain <−60° C. until shipped on dry ice for analysis.
# Quantification of BETi1 concentrations in plasma and synovial fluid was performed using a qualified liquid chromatographic triple quadrupole mass spectrometric (LC-MS/MS) method. Synovial fluids were centrifuged before analysis.
# Toxicokinetic (TK) analysis of BETi1 plasma concentration-time and synovial fluid concentration-time data was performed. TK parameter values including maximum plasma/synovial fluid concentrations (Cmax), time to reach maximum concentrations (Tmax), and area under the plasma/synovial fluid concentrations vs. time curve (AUC) from time zero to 672-hour (AUC0-672h) was determined. Values that were below the lower limit of quantification (BLQ) were set to zero in the calculation of mean concentrations. When more than half of individual values at a single time point were BLQ, mean values were reported as BLQ.
# [2] = test system: anti collagen antibodies induced arthritis (ACAIA); assay: ACAIA mice: histopathology of hind paws (tarsus); assay type: in vivo, Balb/c mice; parameters: key to Histology: Score / Histology: Score, MEAN: 0 = within normal limits, 1 minimal, 2 mild, 3 moderate, 4 severe; details: for Histology: Score, MEAN: group mean; for Histology: Bones / Histology: Cartilage / Histology: Joint space / Histology: Score / Histology: Soft tissue: individual animals;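 as to all read-outs here: Mid-sagittal H&E-stained sections of mouse tarsus taken at study end, lesion severity graded from 0 (normal) to 4 (severe)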
# Description: At the end of the study, the mice are euthanized using pentobarbital sodium injection. Once euthanized, one hind paw of each animal is harvested and collected into vials containing 4% formalin for histology analysis.
# The samples are sagittal sections of the right and left murine tarsus. The histology scoring is based on the severity of the lesions, taking into account both the number of infiltrating cells and the extent of cartilage and bone damage. To be classified as severe, a lesion has to show bone and cartilage damage (beyond degeneration for the latter). The scores are 0=within normal limits, 1-minimal, 2-mild, 3-moderate, 4-severe.
# Statistics and data evaluation are primarily based on the mean values for body weight, arthritis clinical scoring and paw thickness measurements. Where appropriate, analysis of the data by one-way ANOVA followed by Dunnett's post-test is applied to determine the significance of treatment effects. All data for the histopathological analysis is presented as Mean±SEM. The treatment groups are compared to the Vehicle group (Group 1) or the contralateral hind paw using the Student's T-test. A p-value <0.05 is considered to represent a significant difference.
# Histopathological analysis was conducted in accordance with Method B. Tissues from groups 1, 2, 3 and 7 were processed. Following decalcification, the tissues were cut mid-sagitally and were processed and sectioned for H & E staining. The histopathological analysis included an examination of the number of infiltrating cells and the extent of cartilage and bone damage.
# hydroxyproline = assay: Bleomycin mice: hydroxyproline content of lung tissue (colorimetric assay); assay type: in vivo, C57BL/6 male mice; details: for Mean Diff., Hydroxyproline Level of Lung, Group 2 Bleo/Veh vs. BETi1 group: One Way ANOVA, Dunnett's; for Mean Diff., Hydroxyproline Level of Lung, Group 2 Bleo/Veh vs. BETi1 group / Mean 2 (group mean), Hydroxyproline Level of Lung: in µg/mg
# Description: The left lobe of lung tissue is collected, and snap frozen for hydroxyproline levels analysis. Hydroxyproline (4-hydroxyproline, Hyp) is a common nonproteinogenic amino acid. Hydroxyproline in tissue hydrolysates is an indirect measure of the amount of collagen present. Hydroxyproline content of lung tissue is measured by colorimetric assay.
# [3] = 1 mg/kg IA (Group 3), L paw (injected)
# [4] = 1 mg/kg IA (Group 3), R paw (contralateral)
# [5] = 10 mg/kg IA (Group 2), Mean±SEM
# [6] = 10 mg/kg IA (Group 2), L paw (injected)
# [7] = 10 mg/kg IA (Group 2), R paw (contralateral)
# [8] = 1 mg/kg IA (Group 7), L paw (injected)
# [9] = 1 mg/kg IA (Group 7), R paw (contralateral)
smiles,measurement,setting,value
Cn1cc(-c2cccc(O)c2Oc2ccccc2)c2cc[nH]c2c1=O [BETi1],Synovial concentration of BETi1,"[1]; 7.5 mg intra-articular, 72 h (day 3)",125.625
same,Synovial concentration of BETi1,"[1]; 7.5 mg intra-articular, 336 h (day 14)",0
same,Synovial concentration of BETi1,"[1]; 7.5 mg intra-articular, 504 h (day 21)",0
same,Synovial concentration of BETi1,"[1]; 7.5 mg intra-articular, 672 h (day 28), in ng/mL",0.685
same,Synovial concentration of BETi1,"[1]; 7.5 mg intra-articular, […] (day 7)",1.58
same,Synovial concentration of BETi1,"[1]; 75 mg intra-articular, 72 h (day 3)",27050
same,Synovial concentration of BETi1,"[1]; 75 mg intra-articular, 336 h (day 14)",6805
same,Synovial concentration of BETi1,"[1]; 75 mg intra-articular, 504 h (day 21)",937
same,Synovial concentration of BETi1,"[1]; 75 mg intra-articular, 672 h (day 28)",316
same,Synovial concentration of BETi1,"[1]; 75 mg intra-articular, […] (day 7)",33700
same,Synovial concentration of BETi1,"[1]; 150 mg intra-articular, 72 h (day 3)",47600
same,Synovial concentration of BETi1,"[1]; 150 mg intra-articular, 336 h (day 14)",18070
same,Synovial concentration of BETi1,"[1]; 150 mg intra-articular, 504 h (day 21)",7765
same,Synovial concentration of BETi1,"[1]; 150 mg intra-articular, 672 h (day 28)",4375
same,Synovial concentration of BETi1,"[1]; 150 mg intra-articular, […] (day 7)",36000
same,AUC(0-t),"[1]; 7.5 mg/animal, Male, Study Day 1",25.4 µg·h/mL
same,Cmax,"[1]; 7.5 mg/animal, Male, Study Day 1, read-out: Synovia Cmax",0.244 µg/mL
same,Tmax,"[1]; 7.5 mg/animal, Male, Study Day 1, read-out: Synovia Tmax",120 h
same,AUC(0-t),"[1]; 75 mg/animal, Female, Study Day 1",6090 µg·h/mL
same,Cmax,"[1]; 75 mg/animal, Female, Study Day 1, read-out: Synovia Cmax",43.7 µg/mL
same,Tmax,"[1]; 75 mg/animal, Female, Study Day 1, read-out: Synovia Tmax",120 h
same,AUC(0-t),"[1]; 75 mg/animal, Male, Study Day 1",7890 µg·h/mL
same,Cmax,"[1]; 75 mg/animal, Male, Study Day 1, read-out: Synovia Cmax",47.6 µg/mL
same,Tmax,"[1]; 75 mg/animal, Male, Study Day 1, read-out: Synovia Tmax",120 h
same,AUC(0-t),"[1]; 150 mg/animal, Female, Study Day 1",11300 µg·h/mL
same,Cmax,"[1]; 150 mg/animal, Female, Study Day 1, read-out: Synovia Cmax",46.1 µg/mL
same,Tmax,"[1]; 150 mg/animal, Female, Study Day 1, read-out: Synovia Tmax",204 h
same,AUC(0-t),"[1]; 150 mg/animal, Male, Study Day 1",12500 µg·h/mL
same,Cmax,"[1]; 150 mg/animal, Male, Study Day 1, read-out: Synovia Cmax",63.2 µg/mL
same,Tmax,"[1]; 150 mg/animal, Male, Study Day 1, read-out: Synovia Tmax",120 h
same,concentration at 4 weeks,"[1]; both sexes, 75 mg/animal, intra-articular, 75 mg",1 µM
same,concentration at 4 weeks,"[1]; both sexes, 150 mg/animal, intra-articular, 150 mg",13 µM
same,Tmax,"[1]; both sexes, intra-articular, calculated, read-out: Tmax, synovial fluid (converted)",~120 h
same,Cmax,"[1]; both sexes, intra-articular, highest dose (150 mg), read-out: Cmax, synovial fluid",50 µg/mL
same,"mean histopathological score, treated left hind paw","[2]; 1 mg/kg IA (Group 3), Mean±SEM",2.14±0.55 a.u.
same,"Histology: Score, MEAN",[2]; [3],2.14
same,Histology: Bones,[2]; [3],3.5 and 2 and 0 (3×) and 3 and 4
same,Histology: Cartilage,[2]; [3],3.5 and 2 and 0 (3×) and 3 and 4
same,Histology: Joint space,[2]; [3],4 (4×) and 0 (3×)
same,Histology: Score,[2]; [3],3.5 (3×) and 2.5 and 1 (2×) and 0
same,Histology: Soft tissue,[2]; [3],3 (2×) and 2.5 (2×) and 1 (2×) and 0
same,"Histology: Score, MEAN",[2]; [4],3.57
same,Histology: Bones,[2]; [4],4 (5×) and 0 and 3.5
same,Histology: Cartilage,[2]; [4],4 (6×) and 0
same,Histology: Joint space,[2]; [4],4 (6×) and 0
same,Histology: Score,[2]; [4],4 (6×) and 1
same,Histology: Soft tissue,[2]; [4],4 (3×) and 1 and 3.5 (2×) and 3
same,"histopathology findings, treated paws","[2]; 1 mg/kg IA (Group 3L), 3/7 cases",moderate to severe lesions with destruction of cartilage and bone
same,"mean histopathological score, contralateral right hind paw",[2]; [5],4.00±0.00 a.u.
same,"mean histopathological score, treated left hind paw",[2]; [5],0.33±0.21 a.u.
same,"Histology: Score, MEAN","[2]; 10 mg/kg IA (Group 2), L paw (injected), **p < 0.01 vs Vehicle Group, ##p < 0.01 vs contralateral (Right) paw",0.33**##
same,Histology: Bones,[2]; [6],0
same,Histology: Cartilage,[2]; [6],0
same,Histology: Joint space,[2]; [6],0
same,Histology: Score,[2]; [6],0 (4×) and 1 (2×)
same,Histology: Soft tissue,[2]; [6],0 (4×) and 1 (2×)
same,"Histology: Score, MEAN",[2]; [7],4.00
same,Histology: Bones,[2]; [7],4
same,Histology: Cartilage,[2]; [7],4
same,Histology: Joint space,[2]; [7],4
same,Histology: Score,[2]; [7],4
same,Histology: Soft tissue,[2]; [7],4 (4×) and 3.5 (2×)
same,"histopathology findings, treated paws",[2]; 10 mg/kg IA (group 2L),4/6 were WNL
same,reduction in hydroxyproline levels,hydroxyproline; 3 mg/mL (group 5),statistically significant compared to treatment with vehicle
same,hydroxyproline levels,"hydroxyproline; 0.06, 0.6 and 3 mg/mL, vs bleomycin and vehicle",demonstrated a decrease in hydroxyproline levels
same,"Hydroxyproline Level of Lung, Mean",hydroxyproline; Group 3 Bleo/BETi1 0.06 mg/mL,0.2248 μg/mg tissue
same,"Hydroxyproline Level of Lung, individual animals",hydroxyproline; Group 3 Bleo/BETi1 0.06 mg/mL,0.1154 μg/mg tissue and 0.2842 μg/mg tissue and 0.3149 μg/mg tissue and 0.2968 μg/mg tissue and 0.3372 μg/mg tissue and 0.1322 μg/mg tissue and 0.1196 μg/mg tissue and 0.1977 μg/mg tissue
same,"Mean Diff., Hydroxyproline Level of Lung, Group 2 Bleo/Veh vs. BETi1 group",hydroxyproline; Group 3 Bleo/BETi1 0.06 mg/mL,0.08927
same,"Mean 2 (group mean), Hydroxyproline Level of Lung",hydroxyproline; Group 3 Bleo/BETi1 0.06 mg/mL,0.2248
same,"Hydroxyproline Level of Lung, Mean",hydroxyproline; Group 4 Bleo/BETi1 0.6 mg/mL,0.2535 μg/mg tissue
same,"Hydroxyproline Level of Lung, individual animals",hydroxyproline; Group 4 Bleo/BETi1 0.6 mg/mL,0.1377 μg/mg tissue and 0.3400 μg/mg tissue and 0.2954 μg/mg tissue and 0.1503 μg/mg tissue and 0.2745 μg/mg tissue and 0.3191 μg/mg tissue and 0.2242 μg/mg tissue and 0.2703 μg/mg tissue and 0.1029 μg/mg tissue and 0.2298 μg/mg tissue and 0.3121 μg/mg tissue and 0.2982 μg/mg tissue and 0.3414 μg/mg tissue
same,"Mean Diff., Hydroxyproline Level of Lung, Group 2 Bleo/Veh vs. BETi1 group",hydroxyproline; Group 4 Bleo/BETi1 0.6 mg/mL,0.0605
same,"Mean 2 (group mean), Hydroxyproline Level of Lung",hydroxyproline; Group 4 Bleo/BETi1 0.6 mg/mL,0.2535
same,"Hydroxyproline Level of Lung, Mean",hydroxyproline; Group 5 Bleo/BETi1 3 mg/mL,0.2003 μg/mg tissue
same,"Hydroxyproline Level of Lung, individual animals",hydroxyproline; Group 5 Bleo/BETi1 3 mg/mL,0.1935 μg/mg tissue and 0.0596 μg/mg tissue and 0.2200 μg/mg tissue and 0.2800 μg/mg tissue and 0.2731 μg/mg tissue and 0.1308 μg/mg tissue and 0.2466 μg/mg tissue and 0.1112 μg/mg tissue and 0.3107 μg/mg tissue and 0.2382 μg/mg tissue and 0.3024 μg/mg tissue and 0.1349 μg/mg tissue and 0.1029 μg/mg tissue
same,"Mean Diff., Hydroxyproline Level of Lung, Group 2 Bleo/Veh vs. BETi1 group",hydroxyproline; Group 5 Bleo/BETi1 3 mg/mL,0.1137
same,"Mean 2 (group mean), Hydroxyproline Level of Lung",hydroxyproline; Group 5 Bleo/BETi1 3 mg/mL,0.2003
"C[C@@H]1C[C@H]2[C@@H]3CCC4=CC(=O)C=C[C@]4(C)[C@@]3(F)[C@@H](O)C[C@]2(C)[C@@]1(O)C(=O)CO [dexamethasone, Dexamethasone, reference compound]","Histology: Score, MEAN",[2]; [8],2.93
same,Histology: Bones,[2]; [8],4 (2×) and 0 and 3 (3×) and 2.5
same,Histology: Cartilage,[2]; [8],4 (2×) and 0 and 3 (2×) and 2.5 (2×)
same,Histology: Joint space,[2]; [8],4 (6×) and 0
same,Histology: Score,[2]; [8],4 (2×) and 1 and 3 (3×) and 2.5
same,Histology: Soft tissue,[2]; [8],4 (2×) and 1.5 and 2 (2×) and 3 and 2.5
same,"Histology: Score, MEAN",[2]; [9],2.29
same,Histology: Bones,[2]; [9],0 (3×) and 4 (4×)
same,Histology: Cartilage,[2]; [9],0 (3×) and 4 (4×)
same,Histology: Joint space,[2]; [9],0 (3×) and 4 (4×)
same,Histology: Score,[2]; [9],0 (3×) and 4 (4×)
same,Histology: Soft tissue,[2]; [9],0 (3×) and 4 (4×)

# Source: patent publication US20250339409A1, “USES OF PAN BET INHIBITORS” (VYNE THERAPEUTICS INC., priority 2021, published 2025)
